Test results: ChEMBL document CHEMBL5726069, “1-(3-aminopropyl) substituted cyclic amine compounds, preparation method therefor, and pharmaceutical compositions and uses thereof” (2019)

Target: C-C chemokine receptor type 5 (Homo sapiens, UniProt P51681)
Experiment: Calcium Flux Inhibition Experiment: 1. HEK293 cells which can stably express CCR5 were inoculated in a 96-well plate and incubated overnight.2. The medium in each well into which cells were innoculated was removed and 40 μl/well of freshly prepared dye was added. The plate was placed in a 37° C. incubator and incubated for 40 minutes at constant temperature.3. The medicament to be determined was diluted with calcium buffer to eight concentration gradients, which is 1×10−4 M, 1×10−5 M, 1×10−6 M, 1×10−7 M, 1×10−8 M, 1×10−9 M, 1×10−10 M, and 1×10−11 M, respectively, and homogeneously mixed.4. The dye was removed. Freshly prepared calcium buffer was used to wash for one time, 50 μl of calcium buffer was added.5. FlexStation II was used for detection. 25 μl of calcium buffer containing the medicament to be determined was added automatically from the 15th second. The fluorescence value at 525 nm was read ultimately.
Format: cell-based

C-C chemokine receptor type 5, sequence (P51681 whole entry): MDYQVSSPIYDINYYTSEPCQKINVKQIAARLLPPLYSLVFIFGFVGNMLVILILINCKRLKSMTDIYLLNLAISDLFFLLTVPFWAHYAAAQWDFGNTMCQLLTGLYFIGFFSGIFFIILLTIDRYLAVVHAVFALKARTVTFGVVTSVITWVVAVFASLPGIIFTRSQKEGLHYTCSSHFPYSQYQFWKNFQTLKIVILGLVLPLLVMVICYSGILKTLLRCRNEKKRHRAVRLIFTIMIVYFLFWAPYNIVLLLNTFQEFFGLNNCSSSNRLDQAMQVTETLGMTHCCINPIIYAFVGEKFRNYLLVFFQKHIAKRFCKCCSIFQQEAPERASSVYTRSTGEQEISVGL

Compound	IC50
Cc1nnc(C(C)C)n1C1CC2CCC(C1)N2CC[C@H](NC(=O)C1CCC(F)(F)CC1)c1nccs1 (stereo partly drawn)	10.3 nM
CC(=O)Nc1ccc([C@H](CCN2C3CCC2CC(n2c(C)nnc2C(C)C)C3)NC(=O)C2CCC(F)(F)CC2)s1 (stereo partly drawn)	8.23 nM
CCc1ccc([C@H](CCN2C3CCC2CC(n2c(C)nnc2C(C)C)C3)NC(=O)C2CCC(F)(F)CC2)s1 (stereo partly drawn)	4.63 nM
Cc1nnc(C(C)C)n1C1CC2CCC(C1)N2CC[C@H](NC(=O)C1CCC(F)(F)CC1)c1csc2ccccc12 (stereo partly drawn)	11.4 nM
Cc1nnc(C(C)C)n1C1CC2CCC(C1)N2CC[C@H](NC(=O)C1CCC(F)(F)CC1)c1ccc(C#N)s1 (stereo partly drawn)	9.45 nM
Cc1nnc(C(C)C)n1C1CC2CCC(C1)N2CC[C@H](NC(=O)C1CCC(F)(F)CC1)c1ccc(Cl)s1 (stereo partly drawn)	10.4 nM
Cc1nnc(C(C)C)n1C1CC2CCC(C1)N2CCC(NC(=O)C1CCC(F)(F)CC1)c1cccs1 (stereo not drawn)	1.95 nM
Cc1ccc([C@H](CCN2C3CCC2CC(n2c(C)nnc2C(C)C)C3)NC(=O)C2CCC(F)(F)CC2)s1 (stereo partly drawn)	7.28 nM
Cc1ccc([C@H](CCN2C3CCC2CC(n2c(C)nnc2C(C)C)C3)NC(=O)CC#N)s1 (stereo partly drawn)	8.29 nM
Cc1nnc(C(C)C)n1C1CC2CCC(C1)N2CC[C@H](NC(=O)C1CCCCC1)c1ccc(C(=O)N(C)C)s1 (stereo partly drawn)	1.64 nM
Cc1nnc(C(C)C)n1C1CC2CCC(C1)N2CC[C@H](NC(=O)C1CCC(F)(F)CC1)c1ccc(F)s1 (stereo partly drawn)	9.33 nM
CNC(=O)c1ccc([C@H](CCN2C3CCC2CC(n2c(C)nnc2C(C)C)C3)NC(=O)C2CCC(F)(F)CC2)s1 (stereo partly drawn)	13.7 nM
CC(=O)Oc1ccc([C@H](CCN2C3CCC2CC(n2c(C)nnc2C(C)C)C3)NC(=O)C2CCCCC2)s1 (stereo partly drawn)	1.38 nM
